Where “and” joins values, the source holds several entries; their conditions need not be identical. Equal values may be shown once.
Molecular target: COX-1 (Homo sapiens, UniProt P23219)
Experiment: biochemical

COX-1, sequence (P23219 24-599): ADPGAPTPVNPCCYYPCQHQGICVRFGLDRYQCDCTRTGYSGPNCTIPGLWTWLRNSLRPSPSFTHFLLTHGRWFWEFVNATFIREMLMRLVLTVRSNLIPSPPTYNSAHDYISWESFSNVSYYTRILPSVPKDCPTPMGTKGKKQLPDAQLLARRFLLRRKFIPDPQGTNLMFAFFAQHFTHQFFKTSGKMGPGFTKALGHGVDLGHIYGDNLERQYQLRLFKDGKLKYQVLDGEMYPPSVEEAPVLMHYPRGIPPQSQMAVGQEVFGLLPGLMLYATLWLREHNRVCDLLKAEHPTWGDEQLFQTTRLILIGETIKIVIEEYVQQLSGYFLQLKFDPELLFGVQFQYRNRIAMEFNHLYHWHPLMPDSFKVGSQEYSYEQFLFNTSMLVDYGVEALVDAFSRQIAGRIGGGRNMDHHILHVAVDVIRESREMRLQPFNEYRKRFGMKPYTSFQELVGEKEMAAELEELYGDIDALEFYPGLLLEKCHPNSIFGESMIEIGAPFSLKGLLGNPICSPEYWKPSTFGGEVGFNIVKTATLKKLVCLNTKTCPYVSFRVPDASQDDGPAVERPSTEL

Compound | IC50
O=C(O)C1=Cc2ccc(OCc3ccco3)cc2OC1C(F)(F)F (stereo not drawn) [Example 5f, 7-(2-furylmethoxy)-2-(trifluoromethyl)-2H-chromene-3-carboxylic acid] | > 100 µM
COc1c(Cl)cc2c(c1OC)OC(C(F)(F)F)C(C(=O)O)=C2 (stereo not drawn) [Example 4b, 6-chloro-7,8-dimethoxy-2-(trifluoromethyl)-2H-chromene-3-carboxylic acid] | > 500 µM
Cc1c(OCC2CC2)c(Cl)cc2c1OC(C(F)(F)F)C(C(=O)O)=C2 (stereo not drawn) [Example 3d, 6-chloro-7-(cyclopropylmethoxy)-8-methyl-2-(trifluoromethyl)-2H-chromene-3-carboxylic acid] | < 0.137 µM
O=C(O)C1=Cc2cc(Cl)c(N3CC=CCC3)cc2OC1C(F)(F)F (stereo not drawn) [Example 8e, 6-chloro-7-(3,6-dihydropyridin-1(2H)-yl)-2-(trifluoromethyl)-2H-chromene-3-carboxylic acid] | > 100 µM and 130 µM
Cc1cc(C)c(Cc2cc3c(cc2Cl)C=C(C(=O)O)C(C(F)(F)F)O3)cc1Cl (stereo not drawn) [Example 9t, 6-chloro-7-(5-chloro-2,4-dimethylbenzyl)-2-(trifluoromethyl)-2H-chromene-3-carboxylic acid] | 5.5 µM
O=C(O)C1=Cc2ccc(Cc3ccc(F)c(F)c3)cc2OC1C(F)(F)F (stereo not drawn) [Example 9aa, 7-(3,4-difluorobenzyl)-2-(trifluoromethyl)-2H-chromene-3-carboxylic acid] | > 100 µM
Cc1c(O)c(Cl)cc2c1OC(C(F)(F)F)C(C(=O)O)=C2 (stereo not drawn) [Example 3i, 6-chloro-7-hydroxy-8-methyl-2-(trifluoromethyl)-2H-chromene-3-carboxylic acid] | > 97.6 µM
CC(C)(C)Oc1ccc2c(c1)OC(C(F)(F)F)C(C(=O)O)=C2 (stereo not drawn) [Example 5b, 7-tert-butoxy-2-(trifluoromethyl)-2H-chromene-3-carboxylic acid] | > 500 µM
O=C(O)C1=Cc2cc(Cl)c(Cc3ccccc3)cc2O[C@@H]1C(F)(F)F (single isomer, unassigned) [Example 9m] | 24.1 µM
CCC(CC)COc1ccc2c(c1C)OC(C(F)(F)F)C(C(=O)O)=C2 (stereo not drawn) [Example 5d, 7-(2-ethylbutoxy)-8-methyl-2-(trifluoromethyl)-2H-chromene-3-carboxylic acid] | 31.9 µM and 17.2 µM
CCN(C)c1cc2c(cc1Cl)C=C(C(=O)O)C(C(F)(F)F)O2 (stereo not drawn) [Example 8f, 6-chloro-7-[ethyl(methyl)amino]-2-(trifluoromethyl)-2H-chromene-3-carboxylic acid] | > 100 µM
CC(C)(C)CCOc1cc2c(cc1Cl)C=C(C(=O)O)C(C(F)(F)F)O2 (stereo not drawn) [Example 2e, 6-chloro-7-(3,3-dimethylbutoxy)-2-(trifluoromethyl)-2H-chromene-3-carboxylic acid] | 68.8 µM
CCC(CC)COc1c(Cl)cc2c(c1C)OC(C(F)(F)F)C(C(=O)O)=C2 (stereo not drawn) [Example 3b, 6-chloro-7-(2-ethylbutoxy)-8-methyl-2-(trifluoromethyl)-2H-chromene-3-carboxylic acid] | 15.8 µM and 6.7 µM
O=C(O)C1=Cc2cc(Cl)c(N3CCC3)cc2OC1C(F)(F)F (stereo not drawn) [Example 8j, 7-azetidin-1-yl-6-chloro-2-(trifluoromethyl)-2H-chromene-3-carboxylic acid] | > 100 µM
CC(C)(C)CCc1cc2c(cc1Cl)C=C(C(=O)O)C(C(F)(F)F)O2 (stereo not drawn) [Example 9b, 6-chloro-7-(3,3-dimethylbutyl)-2-(trifluoromethyl)-2H-chromene-3-carboxylic acid] | 19 µM and 17.9 µM
CCCOc1c(Cl)cc2c(c1C)OC(C(F)(F)F)C(C(=O)O)=C2 (stereo not drawn) [Example 3c, 6-chloro-8-methyl-7-propoxy-2-(trifluoromethyl)-2H-chromene-3-carboxylic acid] | 2.3 µM
CCCCOc1cccc2c1OC(C(F)(F)F)C(C(=O)O)=C2 (stereo not drawn) [Example 25f, 8-butoxy-2-(trifluoromethyl)-2H-chromene-3-carboxylic acid] | > 100 µM
Cc1ccc(Cc2cc3c(cc2Cl)C=C(C(=O)O)C(C(F)(F)F)O3)c(C)c1Cl (stereo not drawn) [Example 9u, 6-chloro-7-(3-chloro-2,4-dimethylbenzyl)-2-(trifluoromethyl)-2H-chromene-3-carboxylic acid] | 5.52 µM
COCCOc1cc2c(cc1Cl)C=C(C(=O)O)C(C(F)(F)F)O2 (stereo not drawn) [Example 2h, 6-chloro-7-(2-methoxyethoxy)-2-(trifluoromethyl)-2H-chromene-3-carboxylic acid] | > 100 µM
Cc1ccc(Cc2cc3c(cc2Cl)C=C(C(=O)O)C(C(F)(F)F)O3)c(C)c1 (stereo not drawn) [Example 9s, 6-chloro-7-(2,4-dimethylbenzyl)-2-(trifluoromethyl)-2H-chromene-3-carboxylic acid] | 5.85 µM and 5.72 µM
CCCN(CC1CC1)c1cc2c(cc1Cl)C=C(C(=O)O)C(C(F)(F)F)O2 (stereo not drawn) [Example 8g, 6-chloro-7-[(cyclopropylmethyl)(propyl)amino]-2-(trifluoromethyl)-2H-chromene-3-carboxylic acid] | > 100 µM and 194 µM
O=C(O)C1=Cc2cc(Cl)c(CCc3ccc(Cl)cc3)cc2OC1C(F)(F)F (stereo not drawn) [Example 9j, 6-chloro-7-[2-(4-chlorophenyl)ethyl]-2-(trifluoromethyl)-2H-chromene-3-carboxylic acid] | 11.4 µM and 14 µM
CC(C)c1cc2c(cc1Cl)C(Cl)=C(C(=O)O)C(C(F)(F)F)O2 (stereo not drawn) [Example 9g, 4,6-dichloro-7-isopropyl-2-(trifluoromethyl)-2H-chromene-3-carboxylic acid] | 24.2 µM and 25.1 µM
CCCCSc1cc2c(cc1Cl)C=C(C(=O)O)C(C(F)(F)F)O2 (stereo not drawn) [Example 7f, 7-(butylthio)-6-chloro-2-(trifluoromethyl)-2H-chromene-3-carboxylic acid] | 70.8 µM

Now from value to compound:

IC50 | Compound
> 100 µM | Cc1cc(C)c2c(c1)C=C(C(=O)O)[C@@H](C(F)(F)F)O2 (single isomer, unassigned) [Example 32b]
57.9 µM and 35.5 µM | CCc1ccc2c(c1)C=C(C(=O)O)[C@@H](C(F)(F)F)O2 (single isomer, unassigned) [Example 34b]
> 500 µM | COc1ccc(Cl)c2c1OC(C(F)(F)F)C(C(=O)O)=C2 (stereo not drawn) [Example 23d, 5-chloro-8-methoxy-2-(trifluoromethyl)-2H-chromene-3-carboxylic acid]
> 100 µM | Cc1cc(Br)c2c(c1)C=C(C(=O)O)C(C(F)(F)F)N2 (stereo not drawn) [Example 46, 8-Bromo-6-methyl-2-(trifluoromethyl)-1,2-dihydroquinoline-3-carboxylic acid]
> 100 µM | COCC(C)(C)c1cc2c(cc1Cl)C=C(C(=O)O)C(C(F)(F)F)O2 (stereo not drawn) [Example 116, 6-chloro-7-(2-methoxy-1,1-dimethylethyl)-2-(trifluoromethyl)-2H-chromene-3-carboxylic acid]
> 500 µM | CCOc1cc(C)cc2c1OC(C(F)(F)F)C(C(=O)O)=C2 (stereo not drawn) [Example 31, 8-ethoxy-6-methyl-2-(trifluoromethyl)-2H-chromene-3-carboxylic acid]
> 100 µM | COc1cc2c(cc1C(C)(C)C)OC(C(F)(F)F)C(C(=O)O)=C2 (stereo not drawn) [Example 112, 7-tert-butyl-6-methoxy-2-(trifluoromethyl)-2H-chromene-3-carboxylic acid]
> 500 µM | CCCOc1ccc(Cl)c2c1OC(C(F)(F)F)C(C(=O)O)=C2 (stereo not drawn) [Example 23a, 5-chloro-8-propoxy-2-(trifluoromethyl)-2H-chromene-3-carboxylic acid]
28.7 µM and 25.2 µM and 14.7 µM | Cc1cc2c(cc1Cc1ccccc1)OC(C(F)(F)F)C(C(=O)O)=C2 (stereo not drawn) [Example 42a, 7-benzyl-6-methyl-2-(trifluoromethyl)-2H-chromene-3-carboxylic acid]
> 100 µM | CCCOc1cccc2c1OC(C(F)(F)F)C(C(=O)O)=C2 (stereo not drawn) [Example 25e, 8-propoxy-2-(trifluoromethyl)-2H-chromene-3-carboxylic acid]
< 0.686 µM and < 0.137 µM and 0.14 µM | Nc1ccc(Oc2cccc3c2OC(C(F)(F)F)C(C(=O)O)=C3)c(F)c1 (stereo not drawn) [Example 25b, 8-(4-amino-2-fluorophenoxy)-2-(trifluoromethyl)-2H-chromene-3-carboxylic acid]
42.7 µM | O=C(O)C1=Cc2cc(-c3ccc(F)cc3)ccc2NC1C(F)(F)F (stereo not drawn) [Example 48, 6-(4-fluorophenyl)-2-(trifluoromethyl)-1,2-dihydroquinoline-3-carboxylic acid]
< 0.137 µM | CC(C)CN(C)c1c(Cl)cc2c(c1Cl)OC(C(F)(F)F)C(C(=O)O)=C2 (stereo not drawn) [Example 38a, 6,8-dichloro-7-[isobutyl(methyl)amino]-2-(trifluoromethyl)-2H-chromene-3-carboxylic acid]
48.4 µM and 62.6 µM | O=C(O)C1=Cc2c(Cl)ccc(OCc3ccccc3)c2OC1C(F)(F)F (stereo not drawn) [Example 23c, 8-(benzyloxy)-5-chloro-2-(trifluoromethyl)-2H-chromene-3-carboxylic acid]
> 100 µM and 198 µM | CCOc1c(Cl)c(Br)c(Cl)c2c1OC(C(F)(F)F)C(C(=O)O)=C2 (stereo not drawn) [Example 27, 6-bromo-5,7-dichloro-8-ethoxy-2-(trifluoromethyl)-2H-chromene-3-carboxylic acid]
> 100 µM | CNc1c(Cl)cc2c(c1Cl)OC(C(F)(F)F)C(C(=O)O)=C2 (stereo not drawn) [Example 38b, 6,8-dichloro-7-(methylamino)-2-(trifluoromethyl)-2H-chromene-3-carboxylic acid]
> 100 µM and 115 µM and 49.6 µM | CCc1cc(OC(F)(F)F)cc2c1O[C@@H](C(F)(F)F)C(C(=O)O)=C2 (single isomer, unassigned) [Example 21l]
< 0.137 µM | Cc1c(Cc2ccccc2)ccc2c1OC(C(F)(F)F)C(C(=O)O)=C2 (stereo not drawn) [Example 14b, 7-benzyl-8-methyl-2-(trifluoromethyl)-2H-chromene-3-carboxylic acid]
78.5 µM and 52.3 µM | C=C(C)C#Cc1cc(Cl)cc2c1OC(C(F)(F)F)C(C(=O)O)=C2 (stereo not drawn) [Example 36, 6-chloro-8-(3-methylbut-3-en-1-ynyl)-2-(trifluoromethyl)-2H-chromene-3-carboxylic acid]
40.4 µM | CCCCCc1cc(OC(F)(F)F)cc2c1OC(C(F)(F)F)C(C(=O)O)=C2 (stereo not drawn) [Example 21j, 8-pentyl-6-(trifluoromethoxy)-2-(trifluoromethyl)-2H-chromene-3-carboxylic acid]
> 100 µM and 119 µM | C=CCc1cc(OC(F)(F)F)cc2c1OC(C(F)(F)F)C(C(=O)O)=C2 (stereo not drawn) [Example 21s, 8-allyl-6-(trifluoromethoxy)-2-(trifluoromethyl)-2H-chromene-3-carboxylic acid]

— US20050148627A1, “Benzopyran compounds for use in the treatment and prevention of inflammation related conditions” (priority 2003, published 2005)
